Assay results published in PMC11413682 (Acta Pharmaceutica Sinica. B, 2024).
pKd: −log10 of the molar value. Like-named read-outs stand apart in the source and are kept apart here. No end group written: not given here.

Molecular target: T1, CUL2^ZYG11B (residues 490–728) (Homo sapiens, UniProt Q9C0D3)
T1 construct: PCR was used to amplify CUL2^ZYG11B (residues 490–728); 6×His-SUMO (TEV-cleavable) (N, cleaved yes); made in house; host or cells: E. coli
Test: ITC binding of ORF10 NTE synthetic peptides to CUL2^ZYG11B

[1] = figure panels, […], repeated 3 times, read-out: Kd

T1 sequence (Q9C0D3 490-728): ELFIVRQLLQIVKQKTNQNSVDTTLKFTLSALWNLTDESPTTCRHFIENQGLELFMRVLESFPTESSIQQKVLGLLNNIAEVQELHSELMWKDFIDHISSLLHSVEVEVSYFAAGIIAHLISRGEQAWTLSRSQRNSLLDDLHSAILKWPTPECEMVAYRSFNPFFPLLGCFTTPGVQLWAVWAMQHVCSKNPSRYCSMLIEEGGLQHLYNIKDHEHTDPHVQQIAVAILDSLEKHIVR

Row | Substance | pKd [1] | further results
1 | AYINV [SARS-2 ORF10 N5-G1A] |  | pKd: 4.91
2 | GFINV [SARS-2 ORF10 N5-Y2F] | 5.33 | 
3 | GYANV [SARS-2 ORF10 N5-I3A] | 5.25 | 
4 | GYFNV [SARS-2 ORF10 N5-I3F] | 6.06 | 
5 | GYIAV [SARS-2 ORF10 N5-N4A] | 6.23 | 
6 | PYINV [SARS-2 ORF10 N5-G1P, altered peptide derived from SARS-CoV-2 ORF10 N5, G1P] |  | binding to CUL2^ZYG11B (in words) (ITC): abolished
